Results on two compounds are retold here after paper PMC12595434, “Development of retinoid nuclear receptor pathway antagonists through targeting aldehyde dehydrogenase 1A3” (iScience, 2025).

The target in one series is Alpha2A (Homo sapiens, UniProt P08913). Nature of the series: Off-target profiling panel. The following applies: read-out: Inhibition by MBE1 at 10 μM (%). Format: binding.
The target in a further series is hERG (Homo sapiens, UniProt Q12809). As to the kind of experiment: hERG patch-clamp. It counts as cell-based. A general note: The hERG channel carries a current that helps repolarise heart muscle cells.
Chain of hERG (Q12809 whole entry): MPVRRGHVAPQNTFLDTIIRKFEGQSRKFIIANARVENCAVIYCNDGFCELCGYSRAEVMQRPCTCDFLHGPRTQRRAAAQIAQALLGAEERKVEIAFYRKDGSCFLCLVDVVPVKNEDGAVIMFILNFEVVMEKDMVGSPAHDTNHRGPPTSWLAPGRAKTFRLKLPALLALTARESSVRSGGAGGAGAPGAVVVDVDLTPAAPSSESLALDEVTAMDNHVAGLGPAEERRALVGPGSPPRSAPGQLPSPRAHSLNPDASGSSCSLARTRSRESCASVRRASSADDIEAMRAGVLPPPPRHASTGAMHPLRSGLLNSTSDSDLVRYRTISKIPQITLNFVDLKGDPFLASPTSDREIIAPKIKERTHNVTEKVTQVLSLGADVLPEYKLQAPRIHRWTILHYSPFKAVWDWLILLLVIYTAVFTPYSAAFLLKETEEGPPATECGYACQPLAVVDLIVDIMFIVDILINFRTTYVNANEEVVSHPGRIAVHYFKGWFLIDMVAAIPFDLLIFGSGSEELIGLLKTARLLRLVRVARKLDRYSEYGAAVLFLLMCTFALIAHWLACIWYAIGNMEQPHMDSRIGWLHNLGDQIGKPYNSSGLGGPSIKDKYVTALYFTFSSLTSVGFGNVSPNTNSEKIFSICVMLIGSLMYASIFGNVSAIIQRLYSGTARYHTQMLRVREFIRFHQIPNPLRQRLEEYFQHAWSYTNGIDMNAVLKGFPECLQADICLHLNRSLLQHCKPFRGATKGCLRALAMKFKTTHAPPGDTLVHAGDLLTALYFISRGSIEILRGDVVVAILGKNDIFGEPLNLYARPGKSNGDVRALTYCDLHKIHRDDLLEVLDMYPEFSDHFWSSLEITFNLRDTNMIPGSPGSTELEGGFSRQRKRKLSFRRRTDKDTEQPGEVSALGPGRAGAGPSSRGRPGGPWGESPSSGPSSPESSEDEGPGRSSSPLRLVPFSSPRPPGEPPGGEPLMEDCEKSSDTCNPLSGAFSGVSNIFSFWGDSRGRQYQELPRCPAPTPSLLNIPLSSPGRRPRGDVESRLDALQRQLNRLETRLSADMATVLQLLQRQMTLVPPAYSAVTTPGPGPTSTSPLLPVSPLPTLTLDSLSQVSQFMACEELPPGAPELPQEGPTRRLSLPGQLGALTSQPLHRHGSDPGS
The next series deals with HaCaT cells. As to the kind of experiment: Dose-titration cytotoxicity analysis. The following applies: 24 hour incubation, highest tested dose 10 μM.
A further series deals with T1, ROBO1 (Homo sapiens, UniProt Q9Y6N7).
T1 construct: Treated A375 cells were harvested from 10 × 15 cm plates; endogenous in cells; host or cells: A375 melanoma cells
T1 sequence (Q9Y6N7 26-1651): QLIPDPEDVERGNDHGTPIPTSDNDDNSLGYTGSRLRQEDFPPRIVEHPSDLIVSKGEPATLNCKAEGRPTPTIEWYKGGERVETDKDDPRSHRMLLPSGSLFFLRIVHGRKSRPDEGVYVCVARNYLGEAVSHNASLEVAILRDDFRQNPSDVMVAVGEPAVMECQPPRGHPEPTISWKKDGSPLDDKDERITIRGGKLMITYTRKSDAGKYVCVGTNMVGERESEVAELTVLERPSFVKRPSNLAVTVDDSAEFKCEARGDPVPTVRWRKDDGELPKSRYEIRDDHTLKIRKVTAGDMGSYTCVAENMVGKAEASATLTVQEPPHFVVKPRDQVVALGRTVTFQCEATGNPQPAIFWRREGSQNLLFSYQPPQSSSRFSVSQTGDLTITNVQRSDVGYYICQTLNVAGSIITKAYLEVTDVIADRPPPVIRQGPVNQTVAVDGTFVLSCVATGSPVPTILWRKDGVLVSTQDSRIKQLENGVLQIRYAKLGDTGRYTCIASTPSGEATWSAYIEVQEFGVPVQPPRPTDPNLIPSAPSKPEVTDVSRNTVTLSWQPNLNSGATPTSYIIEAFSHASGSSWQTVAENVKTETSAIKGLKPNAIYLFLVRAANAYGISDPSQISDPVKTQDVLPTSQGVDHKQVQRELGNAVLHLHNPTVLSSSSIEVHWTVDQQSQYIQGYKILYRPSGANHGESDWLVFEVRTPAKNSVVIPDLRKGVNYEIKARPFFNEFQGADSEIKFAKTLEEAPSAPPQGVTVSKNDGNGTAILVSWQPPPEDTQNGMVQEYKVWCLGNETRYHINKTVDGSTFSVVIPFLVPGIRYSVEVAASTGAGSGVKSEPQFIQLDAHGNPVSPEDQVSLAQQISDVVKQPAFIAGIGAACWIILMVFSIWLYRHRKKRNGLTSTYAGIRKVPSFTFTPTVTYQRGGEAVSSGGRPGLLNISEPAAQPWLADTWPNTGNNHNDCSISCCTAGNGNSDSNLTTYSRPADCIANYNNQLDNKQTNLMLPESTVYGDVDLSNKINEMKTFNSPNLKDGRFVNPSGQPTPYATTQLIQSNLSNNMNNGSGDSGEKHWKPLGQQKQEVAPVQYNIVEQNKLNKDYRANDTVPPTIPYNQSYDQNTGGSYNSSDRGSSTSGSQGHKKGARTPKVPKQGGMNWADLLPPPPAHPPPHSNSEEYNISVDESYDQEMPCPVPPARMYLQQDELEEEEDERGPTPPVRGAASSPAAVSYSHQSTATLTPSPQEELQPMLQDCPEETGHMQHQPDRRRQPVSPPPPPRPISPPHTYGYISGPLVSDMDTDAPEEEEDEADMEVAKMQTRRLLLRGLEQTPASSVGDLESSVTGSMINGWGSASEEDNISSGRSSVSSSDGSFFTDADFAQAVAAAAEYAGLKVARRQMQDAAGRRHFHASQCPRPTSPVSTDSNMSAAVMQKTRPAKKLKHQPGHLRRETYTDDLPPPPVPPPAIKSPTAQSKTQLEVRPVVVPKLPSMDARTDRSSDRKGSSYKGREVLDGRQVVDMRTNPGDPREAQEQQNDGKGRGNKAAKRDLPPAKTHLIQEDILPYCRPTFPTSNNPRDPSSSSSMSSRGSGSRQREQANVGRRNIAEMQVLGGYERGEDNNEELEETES
Nature of the series: Thermal proteome profiling (TPP) in A375 cells. It counts as cell-based. The following applies: ROBO1, 100 nM.

The target of a further series is hKCNQ1 (Homo sapiens, UniProt P51787). As to the kind of experiment: Off-target profiling panel. Format: cell-based. The note with it: read-out: Inhibition by MBE1 at 10 μM (%).
The target in another series is D1 (Homo sapiens, UniProt P21728). Nature of the series: Off-target profiling panel. Format: binding. The note with it: read-out: Inhibition by MBE1 at 10 μM (%).
Chain of D1 (P21728 whole entry): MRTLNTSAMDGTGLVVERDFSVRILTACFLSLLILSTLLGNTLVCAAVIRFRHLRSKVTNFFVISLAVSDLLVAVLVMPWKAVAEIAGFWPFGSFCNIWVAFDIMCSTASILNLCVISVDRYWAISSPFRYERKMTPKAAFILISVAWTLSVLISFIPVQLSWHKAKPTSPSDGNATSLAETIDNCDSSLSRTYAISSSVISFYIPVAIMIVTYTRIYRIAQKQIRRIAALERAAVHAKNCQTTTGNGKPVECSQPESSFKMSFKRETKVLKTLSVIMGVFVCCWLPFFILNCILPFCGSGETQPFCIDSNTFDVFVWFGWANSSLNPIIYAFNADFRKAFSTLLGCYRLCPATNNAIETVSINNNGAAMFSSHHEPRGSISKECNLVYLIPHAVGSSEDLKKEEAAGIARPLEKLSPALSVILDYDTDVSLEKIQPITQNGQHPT
A further series has as its target Beta1 (Homo sapiens, UniProt P08588). As to the kind of experiment: Off-target profiling panel. Format: binding. The note with it: read-out: Inhibition by MBE1 at 10 μM (%).
Another series deals with CB2 (Homo sapiens, UniProt P34972). Nature of the series: Off-target profiling panel. Format: binding. The following applies: read-out: Inhibition by MBE1 at 10 μM (%).
For another series, the system named is MDA-MB-468 cells. The note with it: MDA-MB-468, 24 hour incubation, highest tested dose 10 μM.
For the next series, the target named is T2, CDCP1 (Homo sapiens, UniProt Q9H5V8).
T2 construct: Treated A375 cells were harvested from 10 × 15 cm plates; endogenous in cells; host or cells: A375 melanoma cells
T2 sequence (Q9H5V8 30-836): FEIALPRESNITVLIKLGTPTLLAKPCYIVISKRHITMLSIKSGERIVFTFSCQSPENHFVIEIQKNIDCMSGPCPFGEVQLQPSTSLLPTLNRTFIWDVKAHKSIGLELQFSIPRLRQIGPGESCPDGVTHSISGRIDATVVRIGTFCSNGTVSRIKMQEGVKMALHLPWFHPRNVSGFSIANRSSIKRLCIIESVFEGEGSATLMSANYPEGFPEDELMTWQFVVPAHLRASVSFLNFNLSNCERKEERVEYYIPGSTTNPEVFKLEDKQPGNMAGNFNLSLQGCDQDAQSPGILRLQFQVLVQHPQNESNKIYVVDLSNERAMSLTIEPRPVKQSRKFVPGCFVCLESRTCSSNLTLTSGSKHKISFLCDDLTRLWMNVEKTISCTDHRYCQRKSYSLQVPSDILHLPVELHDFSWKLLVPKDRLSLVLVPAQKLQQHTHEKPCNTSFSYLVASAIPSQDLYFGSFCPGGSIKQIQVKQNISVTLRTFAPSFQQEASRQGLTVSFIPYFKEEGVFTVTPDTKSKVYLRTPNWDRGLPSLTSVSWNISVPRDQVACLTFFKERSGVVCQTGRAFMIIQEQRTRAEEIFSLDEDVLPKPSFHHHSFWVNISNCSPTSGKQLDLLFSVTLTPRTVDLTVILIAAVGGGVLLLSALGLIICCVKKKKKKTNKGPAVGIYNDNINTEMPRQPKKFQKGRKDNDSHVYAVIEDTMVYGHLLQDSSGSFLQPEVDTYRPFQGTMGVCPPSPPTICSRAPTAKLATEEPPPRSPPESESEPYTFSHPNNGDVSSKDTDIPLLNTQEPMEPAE
Nature of the series: Thermal proteome profiling (TPP) in A375 cells. Format: cell-based. The following applies: CDCP1, 1 uM.

For the next series, the target named is op-delta (Homo sapiens, UniProt P41143). As to the kind of experiment: Off-target profiling panel. Format: binding. The following applies: read-out: Inhibition by MBE1 at 10 μM (%).
The target in a further series is 5HT3 (Homo sapiens, UniProt P46098). Nature of the series: Off-target profiling panel. The following applies: read-out: Inhibition by MBE1 at 10 μM (%). It counts as binding.
Chain of 5HT3 (P46098 24-478): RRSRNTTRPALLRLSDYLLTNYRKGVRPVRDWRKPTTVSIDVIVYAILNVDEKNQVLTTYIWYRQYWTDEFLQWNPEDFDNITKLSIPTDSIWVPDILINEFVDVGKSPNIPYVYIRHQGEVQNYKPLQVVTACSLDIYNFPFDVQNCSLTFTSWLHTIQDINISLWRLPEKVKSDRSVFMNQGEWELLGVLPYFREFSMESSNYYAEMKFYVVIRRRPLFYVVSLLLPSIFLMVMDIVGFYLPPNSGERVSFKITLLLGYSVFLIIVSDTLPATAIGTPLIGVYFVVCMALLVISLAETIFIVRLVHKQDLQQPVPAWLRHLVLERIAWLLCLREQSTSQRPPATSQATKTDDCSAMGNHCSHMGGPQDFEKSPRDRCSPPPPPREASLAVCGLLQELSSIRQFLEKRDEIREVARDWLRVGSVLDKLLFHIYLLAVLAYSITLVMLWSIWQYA
Another series deals with NMDA. As to the kind of experiment: Off-target profiling panel. It counts as binding. The following applies: 10 μM.
The target of series [1] is T3, ALDH1A3 in MCF7 or SUM159-M1a-ALDH1A3 knockout cells (Homo sapiens, UniProt P47895).
T3 construct: expressed in transfected cells; host or cells: MCF7 wild-type; SUM159-M1a-ALDH1A3 knockout
Nature of the series: Aldefluor dose titration, cells with ectopic ALDH1A3. Format: cell-based. Here is the method: Next, we developed three orthogonal methods to assess MBE1.5 selectivity and potency in cellular assays, as these cellular assays provide a more physiologically relevant method to assess target engagement and specificity. […] We confirmed expression of each enzyme and then performed a dose titration of the Aldefluor assay in each cell derivative with MBE1.5. […] Therefore, we performed thermal proteome profiling (TPP) on A375 melanoma cells exposed to DMSO, 100 nM MBE1, and 1 μM MBE1. […] These two doses would be expected to saturate ALDH1A3 binding based on the biochemical affinity while the high dose may be expected to identify potential MBE1 off-targets. […] We next assessed for melting point changes in the dataset using a 1.5°C cutoff and p < 0.05; 112 proteins were identified in the comparison between 100 nM MBE1 and DMSO, including ALDH1A3. […] Finally, we validated that MBE1.5 blocked the physiological function of ALDH1A3 by testing a dose titration of MBE1.5 in the retinoid inhibition assay using MCF7-ALDH1A3 cell-based readout.
In addition, cells were suspended at a concentration of 100,000 cells per mL. […] Cells were analyzed by a BD LSRII for flow cytometry and were sorted using a FACSAria Fusion cell sorter (BD Biosciences) equipped with a 70 micron nozzle. […]

Chain of Alpha2A (P08913 whole entry): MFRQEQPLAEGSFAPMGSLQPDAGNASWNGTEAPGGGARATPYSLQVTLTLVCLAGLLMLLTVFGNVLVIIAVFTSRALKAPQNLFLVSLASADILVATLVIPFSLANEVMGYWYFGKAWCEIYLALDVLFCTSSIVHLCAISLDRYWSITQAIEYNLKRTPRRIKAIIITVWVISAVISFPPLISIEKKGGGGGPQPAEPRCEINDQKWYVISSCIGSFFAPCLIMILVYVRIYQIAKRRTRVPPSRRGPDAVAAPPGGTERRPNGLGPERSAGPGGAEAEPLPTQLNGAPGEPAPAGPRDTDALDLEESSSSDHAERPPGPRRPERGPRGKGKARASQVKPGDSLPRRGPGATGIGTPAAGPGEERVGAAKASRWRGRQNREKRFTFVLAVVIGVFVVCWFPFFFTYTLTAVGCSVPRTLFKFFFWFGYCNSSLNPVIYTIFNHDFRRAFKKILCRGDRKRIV

What is called inhibition is the drop in the measured response relative to a control, in per cent. In general, IC50 refers to the concentration that inhibits the measured activity by half. Low readings indicate inhibition by little substance, high ones a need for much substance. Regarding `CCc1cnccc1C(=O)Nc1cc2c(cc1F)NC(=O)CC2` [MBE1, 3-ethyl-N-(7-fluoro-2-oxo-3,4-dihydro-1H-quinolin-6-yl)pyridine-4-carboxamide], the inhibition at 10 µM on Alpha2A is -1.15%; at hKCNQ1 it was 11.9%; at D1, -16.4%; at Beta1 it was -8.49%; at CB2, 5.07%; on op-delta it was 5.54%. In addition, at 5HT3, the inhibition at 10 µM was -18.6%. It took 26.6 µM to reach half-maximal inhibition against hERG (IC50). Besides, the “nonspecific cytotoxicity (in words)” value in the series on HaCaT cells and in the series on MDA-MB-468 cells was “nontoxic” throughout. In addition, on ROBO1, the “100nM MBE1 Tm” value is listed as 63.1814. Moreover, the “DMSO-100nM MBE1 TM” value at ROBO1 is recorded as -8.49. The ΔTm at 1 µM at CDCP1 (A-375, read-out: DMSO-1uM MBE1 TM shift) is -7.8 °C. The “1uM MBE1 Tm” value at CDCP1 was 63.2685. Also, the “Inhibition by MBE1 at 10 μM (%)” value in the series with NMDA was −13.59%.

With `CCc1ccccc1C(=O)Nc1cc2c(cc1F)NC(=O)CC2` [MBE1.5, 2-ethyl-N-(7-fluoro-2-oxo-3,4-dihydro-1H-quinolin-6-yl)benzamide], at hERG, the IC50 is greater than 30 µM. In addition, the “inhibition of ALDH1A3 in Aldefluor assay (in words)” value in series [1] is on record as “high potency”.
